Data: US5597922A, “Glycine receptor antagonist pharmacophore” (priority 1994, dated 1997)
Like-named read-outs stand apart in the source and are kept apart here.

How the values were obtained:
glycine/NMDA receptor = target: T1, glycine/NMDA receptor (Rattus norvegicus, UniProt P35439); experiment: inhibition of 1 μM glycine-stimulated [3H]-MK801 binding in rat brain membrane homogenates (glycine/NMDA receptor antagonist activity); settings: for potency relative to DCK (% of DCK): relative to 5,7-dichlorokynurenic acid (DCK); for activity as antagonist for the glycine/NMDA receptor (in words): in vitro binding assay; for Ki: calculated from IC50 by Cheng and Prusoff equation
T1 construct: rat brain membrane homogenates which are enriched in NMDA receptors; tissue Pel-Freez, Rogers, Ark; (frozen rat brains); host or cells: rat brain membrane homogenates
Experimental: This assay takes advantage of the fact that the binding of [^3 H]-MK801 to the PCP receptor inside the pore of the NMDA channel is dependent on the presence of both glutamate and glycine. In the absence of glycine but in the presence of glutamate, [^3 H]-MK801 cannot bind effectively to the PCP receptor, because the NMDA channel remains closed and access of [^3 H]-MK801 to the PCP receptor inside the closed channel pore is severely restricted.
The assay is conducted using rat brain membrane homogenates which are enriched in NMDA receptors. The membranes are prepared as follows. Frozen rat brains (obtained from Pel-Freez, Rogers, Ark.) are homogenized in 15 volumes (w/v) of ice cold 0.32M sucrose. The homogenate is spun at 1,000×g for ten minutes. The supernatant is collected and spun for 20 minutes at 44,000×g. The pellet is suspended in 15 volumes of water (relative to original brain weight). The homogenate is again spun at 44,000×g for twenty minutes. The pellet is resuspended in 5 volumes of water and the suspension is freeze-thawed 2 times. After the final thaw cycle, the suspension is brought to 15 volumes with water and spun at 44,000×g for twenty minutes. The pellet is resuspended in 5 volumes of ice-cold […] HEPES, and is titrated to pH 7.4 with KOH containing 0.04% Triton X-100. Membranes are incubated with the Triton/HEPES buffer at 37° C. for 15 minutes. The volume is then brought to 15 with ice-cold 10 mM HEPES, pH 7.4, and spun/washed three times with spins of 44,000×g between washes. The final pellet is suspended in three volumes of 50 mM HEPES, pH 7.4 and the protein concentration is determined with a standard dye-binding protein assay (Bio-Rad, Richmond, Calif.). The suspension is stored at -80° C. until used. Only HPLC grade water is used for all buffers and suspensions/washings. The extensive washings are necessary to remove as much endogenous glycine from the membrane preparation as possible.
Nonspecific binding is defined as the […] presence of PCP (final concentration: 100 μM). To determine the effect of 1 μM glycine on the binding of [^3 H]-MK801, bound radioactivity in the presence of 10 μM glutamate alone (final concentration) is subtracted from the bound radioactivity in the presence of both 10 μM glutamate and 1 μM glycine (final concentration). A 500 nM concentration (final) of 5,7-dichlorokynurenic (DCK) acid is added to all assay tubes. This concentration of the glycine antagonist DCK "buffers" most of the residual endogenous glycine that is not removed by the extensive washing steps that are carried out during the membrane preparation procedure.
The assays are incubated for 120 minutes at room temperature after which time the membrane-bound radioactivity is isolated from the free radioactivity by vacuum filtration through Whatman glass fiber filters that had been pretreated with 0.3% polyethyleneimine. Filtration is accomplished using a Brandel 48 well cell harvester. Filtered membranes are washed three times with 3 mL each of ice cold buffer. Filters are transferred to scintillation vials and 5 mL of scintillation cocktail is added. The vials are shaken overnight and the radioactivity is counted by liquid scintillation spectroscopy. The assays are done in triplicate and all experiments are conducted at least three times.

[1] = in words; cited from earlier work
[2] = test system: glycine binding site of the NMDA receptor; settings: Fletcher and Lodge (1988); cited from earlier work
PCP receptor = settings: Wong, E. H. F., et al. (1986); cited from earlier work
[3] = 1 μM glycine-stimulated [3H]-MK801 binding, rat brain membranes, read-out: IC50
[4] = 1 μM glycine-stimulated [3H]-MK801 binding, rat brain membranes, unit μm [sic], read-out: IC50

For `O=c1[nH]c2ccccc2c(=O)o1` [Compound 14a, Isatoic anhydride], the IC50 (glycine/NMDA receptor) was 231 µM and the “potency relative to DCK (% of DCK)” value (glycine/NMDA receptor) was 1.1%.
In the case of `O=c1[nH]c2cc(Cl)c([N+](=O)[O-])c(Cl)c2c(=O)o1` [Compound 14d, 5,7-Dichloro-6(8)-nitroisatoic anhydride], the “potency relative to DCK (% of DCK)” value (glycine/NMDA receptor) is reported as 2.7%.
With `Oc1nc2ccccc2c(O)c1O` [Compound 11, 2,3,4-Trihydroxyquinoline] the IC50 (glycine/NMDA receptor; [3]) was 60 µM and the “potency relative to DCK (% of DCK)” value (glycine/NMDA receptor) was 4%.
For `O=C(O)c1cc2ccccc2[nH]1` [indole-2-carboxylic acid], the blood/brain barrier penetration [1] is listed as “cannot penetrate the blood/brain barrier”.
In the case of `O=C1Nc2ccccc2C1=O` [Compound 13, Isatin], the “activity as antagonist for the glycine/NMDA receptor (in words)” value (glycine/NMDA receptor) is reported as “not to be active”.
In the case of `O=c1[nH]c2cc(Cl)c(Cl)cc2[nH]c1=NO` [Compound 37, 6,7-Dichloro-3-(hydroxyimino)-1,4-dihydroquinoxalin-2-one], the Ki (glycine/NMDA receptor) is reported as 0.3 µM.
For `O=C1Nc2cc(Cl)c([N+](=O)[O-])c(Cl)c2C1=O` [Compound 13e, 4,6-Dichloro-5(7)-nitroisatin], the IC50 (glycine/NMDA receptor; [4]) was 96.5 µM and the “potency relative to DCK (% of DCK)” value (glycine/NMDA receptor) was 3%.
For `O=C1Nc2cc(Cl)cc(Cl)c2C1=O` [Compound 13d, 4,6-Dichloroisatin], the “activity as antagonist for the glycine/NMDA receptor (in words)” value (glycine/NMDA receptor) was “not to be active”.
With `O=C1Nc2ccccc2C(=O)C1=O` [Compound 12, Quinoline-2,3,4-trione] the IC50 (glycine/NMDA receptor; [3]) was 50 µM and the “potency relative to DCK (% of DCK)” value (glycine/NMDA receptor) was 5%.
With `O=C1CNC(=O)c2ccccc2N1` [Compound 73a, 2,3,5-trihydro-1H,4H-1,4-Benzodiazepine-2,5-dione] the IC50 (glycine/NMDA receptor; [4]) was 300 µM and the “potency relative to DCK (% of DCK)” value (glycine/NMDA receptor) was 1.0%.
In the case of `NC1CCN(O)C1=O` (stereo not shown) [HA-966], the blood/brain barrier penetration [1] is listed as “sufficiently penetrates the blood/brain barrier”, the “affinity for the glycine binding site (in words)” value [2] is listed as “micromolar affinity” and the “type of activity at the glycine binding site (in words)” value [2] is listed as “partial agonist”.
In the case of `COc1cc2ccccc2[nH]c1=O` [Compound 5, 3-Methoxy-2-quinolone], the “activity as antagonist for the glycine/NMDA receptor (in words)” value (glycine/NMDA receptor) is reported as “inactive”.
For `O=c1[nH]c2ccccc2oc1=O` [Compound 2, 4,1-Benzoxazine;2,3-dione], the IC50 (glycine/NMDA receptor; [4]) was 167 µM and the “potency relative to DCK (% of DCK)” value (glycine/NMDA receptor) was 1.5%.
In the case of `O=C(O)c1cc(O)c2ccc(Cl)cc2n1` [7-Cl-kynurenic acid], the blood/brain barrier penetration [1] is listed as “cannot penetrate the blood/brain barrier”.
For `O=c1[nH]c2ccccc2[nH]c1=O` [QX, 1,4-dihydroquinoxaline-2,3-dione, reference compound], the “potency relative to DCK (% of DCK)” value (glycine/NMDA receptor) was 2%.
For `O=C(O)c1cc(=O)c2ccccc2o1` [Compound 19], the “activity as antagonist for the glycine/NMDA receptor (in words)” value (glycine/NMDA receptor) was “only partially active”.
With `O=C1Nc2cc(Cl)c(Cl)cc2NC1[N+](=O)[O-]` (stereo not shown) [Compound 33] the Ki (glycine/NMDA receptor; unit μm [sic]) was 0.22 µM.
In the case of `O=C1C=CC(=O)Nc2ccccc2N1` [Compound 43, 1H-6H-1,6-Benzodiazocine-2,5-dione], the “activity as antagonist for the glycine/NMDA receptor (in words)” value (glycine/NMDA receptor) is reported as “inactive”.
In the case of `O=[N+]([O-])c1c(Br)c(Br)cc2nc(O)[nH]c12` [Example 50, 4-Nitro-5,6-dibromo-2-hydroxybenzimidazole], the “Potency relative to DCK (in words)” value (glycine/NMDA receptor; relative to DCK) is reported as “inactive”.
In the case of `C[C@]12N[C@H](Cc3ccccc31)c1ccccc12` [MK-801], the Kd (PCP receptor) is given as ~0.003 µM.
